“And” between values parts separate entries of the source, which are not always exact repeats. Equal entries are not always repeated. Toxic doses and inconclusive results are not listed.
System: BDF1 mice, B16 melanoma ip, median survival T/C
Experiment: NCI In Vivo Anticancer Drug Screen. Data for tumor model B16 Melanoma (intraperitoneal) in B6D2F1 (BDF1) mice
Settings: endpoint: median survival time, higher = longer survival
Procedure, shortened: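 Antitumor activity is assessed in mice bearing a transplanted tumor, with survival or tumor size compared against vehicle-dosed controls and expressed as T/C.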

[1] = dose: 25.0 mg/kg/injection, schedule: Q01DX009 (ip), vehicle: saline with Tween-80
[2] = dose: 12.5 mg/kg/injection, schedule: Q01DX009 (ip), vehicle: saline with Tween-80
[3] = dose: 100.0 mg/kg/injection, schedule: Q01DX009 (ip), vehicle: Klucel (hydroxypropylcellulose) (HPC)
[4] = dose: 200.0 mg/kg/injection, schedule: Q01DX009 (ip), vehicle: Klucel (hydroxypropylcellulose) (HPC)
[5] = dose: 1.56 mg/kg/injection, schedule: Q01DX009 (ip), vehicle: saline
[6] = dose: 6.25 mg/kg/injection, schedule: Q01DX009 (ip), vehicle: saline
[7] = dose: 25.0 mg/kg/injection, schedule: Q01DX009 (ip), vehicle: Klucel (hydroxypropylcellulose) (HPC)
[8] = dose: 50.0 mg/kg/injection, schedule: Q01DX009 (ip), vehicle: Klucel (hydroxypropylcellulose) (HPC)

CC[C@@]1(O)C[C@H](OC2CC(N(C)C)C(OC3CC(O)C(O[C@@H]4O[C@@H](C)C(=O)C=C4N)C(C)O3)C(C)O2)c2c(cc3c(c2O)C(=O)c2c(O)ccc(O)c2C3=O)[C@H]1C(=O)OC (stereo not given in full)
T/C (dose: 0.03 mg/kg/injection, schedule: Q01DX001 (ip), vehicle: saline): 113 % of control | T/C (dose: 0.05 mg/kg/injection, schedule: Q01DX001 (ip), vehicle: saline): 109 % of control | T/C (dose: 0.38 mg/kg/injection, schedule: Q01DX009 (ip), vehicle: saline): 178 % of control | T/C (dose: 0.75 mg/kg/injection, schedule: Q01DX009 (ip), vehicle: saline): 167 % of control | T/C (dose: 1.5 mg/kg/injection, schedule: Q01DX009 (ip), vehicle: saline): 223 % of control | T/C (dose: 1.6 mg/kg/injection, schedule: Q01DX001 (ip), vehicle: saline): 159 % of control | T/C (dose: 3.2 mg/kg/injection, schedule: Q01DX001 (ip), vehicle: saline): 114 % of control | T/C (dose: 1.0 micrograms/kg/injection, schedule: Q01DX005 (ip), vehicle: Klucel (hydroxypropylcellulose) (HPC)): 110 % of control | T/C (dose: 2.0 micrograms/kg/injection, schedule: Q01DX005 (ip), vehicle: Klucel (hydroxypropylcellulose) (HPC)): 100 % of control | T/C (dose: 4.0 micrograms/kg/injection, schedule: Q01DX005 (ip), vehicle: Klucel (hydroxypropylcellulose) (HPC)): 107 % of control | T/C (dose: 8.0 micrograms/kg/injection, schedule: Q01DX005 (ip), vehicle: Klucel (hydroxypropylcellulose) (HPC)): 103 % of control

C[C@]12CCC(=O)C=C1CC[C@@H]1[C@@H]2C(=O)C[C@@]2(C)[C@H]1CC[C@]2(O)C(=O)CO
T/C (dose: 40.0 mg/kg/injection, schedule: Q02DX009 (ip), vehicle: Klucel (hydroxypropylcellulose) (HPC)): 100 % of control | T/C (dose: 80.0 mg/kg/injection, schedule: Q02DX009 (ip), vehicle: Klucel (hydroxypropylcellulose) (HPC)): 112 % of control | T/C (dose: 160.0 mg/kg/injection, schedule: Q02DX009 (ip), vehicle: Klucel (hydroxypropylcellulose) (HPC)): 97 % of control | T/C (dose: 640.0 mg/kg/injection, schedule: Q02DX009 (ip), vehicle: Klucel (hydroxypropylcellulose) (HPC)): 97 % of control

COc1cccc2c1C(=O)c1c(O)c3c(c(O)c1C2=O)C[C@@](O)(C(C)O)C[C@@H]3OC1CC(N2CCC(OC)CC2)C(O)C(C)O1 (stereo not given in full)
T/C (dose: 3.12 mg/kg/injection, schedule: Q01DX001 (ip), vehicle: water): 112 % of control | T/C (dose: 6.25 mg/kg/injection, schedule: Q01DX001 (ip), vehicle: water): 117 % of control | T/C (dose: 12.5 mg/kg/injection, schedule: Q01DX001 (ip), vehicle: water): 173 % of control | T/C (dose: 25.0 mg/kg/injection, schedule: Q01DX001 (ip), vehicle: water): 165 % of control and 166 % of control | T/C (dose: 50.0 mg/kg/injection, schedule: Q01DX001 (ip), vehicle: water): 177 % of control

N=C(N)c1ccc(/C=C/c2ccc(C(=N)N)cc2O)cc1
T/C (dose: 3.12 mg/kg/injection, schedule: Q01DX009 (ip), vehicle: water): 105 % of control and 107 % of control | T/C (dose: 6.25 mg/kg/injection, schedule: Q01DX009 (ip), vehicle: water): 88 % of control and 101 % of control | T/C (dose: 12.5 mg/kg/injection, schedule: Q01DX009 (ip), vehicle: water): 101 % of control and 107 % of control | T/C (dose: 25.0 mg/kg/injection, schedule: Q01DX009 (ip), vehicle: water): 97 % of control and 114 % of control | T/C (dose: 50.0 mg/kg/injection, schedule: Q01DX009 (ip), vehicle: water): 93 % of control and 104 % of control

O=C(O)/C(Cl)=C(/Cl)C(Cl)=C(Cl)Cl
T/C [1]: 95 % of control

CN=S(=O)(OCCCCCOS(=O)(=NC)c1ccccc1)c1ccccc1 (stereo not given)
T/C (dose: 1.5 mg/kg/injection, schedule: Q01DX009 (ip), vehicle: saline with Tween-80): 111 % of control | T/C (dose: 3.0 mg/kg/injection, schedule: Q01DX009 (ip), vehicle: saline with Tween-80): 104 % of control | T/C (dose: 6.0 mg/kg/injection, schedule: Q01DX009 (ip), vehicle: saline with Tween-80): 122 % of control | T/C [2]: 94 % of control | T/C (dose: 24.0 mg/kg/injection, schedule: Q01DX009 (ip), vehicle: saline with Tween-80): 169 % of control | T/C [1]: 122 % of control

CC1CC(NC(=O)/C=C/C(=O)O)CC(C)(C)C1 (stereo not given)
T/C [3]: 93 % of control | T/C [4]: 95 % of control | T/C (dose: 400.0 mg/kg/injection, schedule: Q01DX009 (ip), vehicle: Klucel (hydroxypropylcellulose) (HPC)): 93 % of control

CCCCC(=O)OCC(=O)[C@]1(O)Cc2c(O)c3c(c(O)c2[C@@H](OC2CC(NC(=O)C(F)(F)F)C(O)C(C)O2)C1)C(=O)c1c(OC)cccc1C3=O (stereo not given in full)
T/C (dose: 7.78 mg/kg/injection, schedule: Q01DX004 (ip), vehicle: other): 106 % of control | T/C (dose: 9.38 mg/kg/injection, schedule: Q01DX001 (ip), vehicle: clinical formulation): 111 % of control | T/C (dose: 13.0 mg/kg/injection, schedule: Q01DX004 (ip), vehicle: other): 115 % of control | T/C (dose: 21.6 mg/kg/injection, schedule: Q01DX004 (ip), vehicle: other): 122 % of control | T/C (dose: 32.0 mg/kg/injection, schedule: Q01DX009 (ip), vehicle: distilled water + Tween-80): 180 % of control | T/C (dose: 36.0 mg/kg/injection, schedule: Q01DX004 (ip), vehicle: other): 122 % of control | T/C (dose: 64.0 mg/kg/injection, schedule: Q01DX009 (ip), vehicle: distilled water + Tween-80): 158 % of control | T/C (dose: 75.0 mg/kg/injection, schedule: Q01DX001 (ip), vehicle: clinical formulation): 191 % of control | T/C (dose: 128.0 mg/kg/injection, schedule: Q01DX009 (ip), vehicle: distilled water + Tween-80): 288 % of control | T/C (dose: 150.0 mg/kg/injection, schedule: Q01DX001 (ip), vehicle: clinical formulation): 169 % of control and 205 % of control

N#CCN(CC#N)CC#N
T/C [5]: 97 % of control | T/C (dose: 3.13 mg/kg/injection, schedule: Q01DX009 (ip), vehicle: saline): 102 % of control | T/C (dose: 3.13 mg/kg/injection, schedule: Q04DX003 (ip), vehicle: saline with Tween-80): 113 % of control | T/C [6]: 100 % of control | T/C (dose: 6.25 mg/kg/injection, schedule: Q04DX003 (ip), vehicle: saline with Tween-80): 94 % of control

CNCCCC1c2ccccc2C=Cc2ccccc21
T/C [5]: 106 % of control | T/C (dose: 3.12 mg/kg/injection, schedule: Q01DX009 (ip), vehicle: saline): 118 % of control | T/C [6]: 103 % of control | T/C (dose: 12.5 mg/kg/injection, schedule: Q01DX009 (ip), vehicle: saline): 112 % of control | T/C (dose: 25.0 mg/kg/injection, schedule: Q01DX009 (ip), vehicle: saline): 109 % of control

COc1ccc(N=C(N)NC#N)cc1
T/C [3]: 105 % of control | T/C [4]: 99 % of control

COC1=C(N=[N+]=[N-])C(=O)C(OC)=C(N=[N+]=[N-])C1=O
T/C (dose: 12.5 mg/kg/injection, schedule: Q01DX009 (ip), vehicle: Klucel (hydroxypropylcellulose) (HPC)): 111 % of control | T/C [7]: 95 % of control | T/C [8]: 94 % of control | T/C [3]: 91 % of control

CCNc1nc(NC(C)C)nc(OC)n1
T/C (dose: 6.25 mg/kg/injection, schedule: Q01DX009 (ip), vehicle: saline with Tween-80): 113 % of control | T/C [2]: 108 % of control | T/C [1]: 110 % of control

CCOP(=O)(N1CC1(C)C)N1CC1(C)C (stereo not given)
T/C (dose: 5.0 mg/kg/injection, schedule: Q01DX009 (ip), vehicle: saline): 109 % of control | T/C (dose: 10.0 mg/kg/injection, schedule: Q01DX009 (ip), vehicle: saline): 104 % of control | T/C (dose: 20.0 mg/kg/injection, schedule: Q01DX009 (ip), vehicle: saline): 109 % of control | T/C (dose: 30.0 mg/kg/injection, schedule: Q01DX009 (ip), vehicle: saline): 118 % of control

C=C1CCN(c2ccc(C)cc2)C1=O
T/C (dose: 4.0 mg/kg/injection, schedule: Q01DX009 (ip), vehicle: saline + alcohol): 91 % of control | T/C (dose: 8.0 mg/kg/injection, schedule: Q01DX009 (ip), vehicle: saline + alcohol): 88 % of control | T/C (dose: 16.0 mg/kg/injection, schedule: Q01DX009 (ip), vehicle: saline + alcohol): 94 % of control | T/C (dose: 32.0 mg/kg/injection, schedule: Q01DX009 (ip), vehicle: saline + alcohol): 89 % of control | T/C (dose: 64.0 mg/kg/injection, schedule: Q01DX009 (ip), vehicle: saline + alcohol): 104 % of control

Nn1c(=O)[nH][nH]c1=O
T/C [8]: 92 % of control | T/C [3]: 110 % of control | T/C (dose: 100.0 mg/kg/injection, schedule: Q01DX009 (ip), vehicle: saline with Tween-80): 115 % of control | T/C [4]: 89 % of control | T/C (dose: 200.0 mg/kg/injection, schedule: Q01DX009 (ip), vehicle: saline with Tween-80): 105 % of control | T/C (dose: 400.0 mg/kg/injection, schedule: Q01DX009 (ip), vehicle: saline with Tween-80): 105 % of control

C=CCNC(=S)Nc1ccc(C)cc1
T/C [8]: 100 % of control | T/C [3]: 93 % of control | T/C [4]: 90 % of control

Cc1cc(C)c(NC(=O)Nc2ccccc2)c(C)c1
T/C [7]: 94 % of control | T/C [8]: 94 % of control | T/C [3]: 108 % of control
